Patent US20140023611A1 (priority 2010, published 2014)
Where a name gives a salt, the structure may show the parent alone.

Columns and labels:
human NaP2b (SLC34A2) = molecular target: T1, human NaP2b (SLC34A2) (Homo sapiens, UniProt O95436); assay: Inhibition of NaP2b-mediated Pi (33P) uptake in transfected HEK293 cells, human NaP2b; format: cell-based; details: read-out: pIC50 range for human NaP2b (converted)
T1 construct: host or cells: HEK293
T1 sequence (O95436 1-690): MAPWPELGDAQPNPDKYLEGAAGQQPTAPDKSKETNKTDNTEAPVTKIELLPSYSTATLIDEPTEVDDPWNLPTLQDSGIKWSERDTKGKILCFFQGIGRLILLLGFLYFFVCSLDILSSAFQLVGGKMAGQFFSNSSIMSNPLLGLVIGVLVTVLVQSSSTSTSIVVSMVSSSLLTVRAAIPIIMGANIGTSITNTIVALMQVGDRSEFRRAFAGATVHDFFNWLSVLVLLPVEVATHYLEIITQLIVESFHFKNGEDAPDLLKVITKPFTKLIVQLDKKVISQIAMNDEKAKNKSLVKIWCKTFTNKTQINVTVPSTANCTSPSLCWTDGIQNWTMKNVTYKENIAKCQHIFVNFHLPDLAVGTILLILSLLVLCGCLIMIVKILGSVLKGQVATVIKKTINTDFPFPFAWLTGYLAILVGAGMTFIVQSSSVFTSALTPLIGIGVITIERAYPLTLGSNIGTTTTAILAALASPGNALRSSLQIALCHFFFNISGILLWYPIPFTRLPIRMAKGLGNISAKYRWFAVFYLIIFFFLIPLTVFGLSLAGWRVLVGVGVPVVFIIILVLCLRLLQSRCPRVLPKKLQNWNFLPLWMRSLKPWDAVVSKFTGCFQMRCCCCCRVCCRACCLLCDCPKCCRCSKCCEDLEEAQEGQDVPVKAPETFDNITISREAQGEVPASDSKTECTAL
Summary of the method: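 Uptake of 33P-phosphate (100 uM KH2PO4 carrier, sodium vs choline buffer, pH 7.4) measured after 3-30 min at room temperature, with test compound at twelve concentrations from 0.1 nM to 30 uM in duplicate. Cells were HEK293 transfected with mutated human NaP2b (Thr insertion after 37, N39D) and treated with a PiT-silencing agent. pIC50 values from scintillation counts.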

[1] = Fecal recovery of orally administered compounds; format: in vivo, Sprague-Dawley rats; details: Structure (I) examples, Table 16; rat, oral gavage, feces collected until 48 hr after dosing
Summary of the method: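 After oral dosing, feces collected in metabolic cages up to 48 h, lyophilized and ground. Duplicate weighed portions per animal extracted with organic solvent under non-compound-optimized conditions, so recovery may be a minimal estimate.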

[2] = Stability of compounds in simulated gastric fluid (SGF); format: in vitro ADME; details: simulated gastric fluid (3 mg/mL pepsin), incubation time 6 hr, relative to t=0
Summary of the method: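 Compounds at […] were incubated 3 or 6 hr in USP simulated gastric fluid with 3 mg/mL pepsin or simulated intestinal fluid with 3 mg/mL pancreatin. Remaining compound was quantified by HPLC-UV or HPLC-MS peak area % and reported as percent of the t=0 level in the same medium.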

IC50 (human NaP2b (SLC34A2)) [nM] | % recovered in feces [1] | % remaining, SGF [2] | Structure (SMILES)
1000 to 7940 | >80% | – | CCN(CC)c1ccc(NC(=O)c2cccc(CCCOCCOCCOCCOCCNS(=O)(=O)c3ccc(C(=O)N(CCOC)CCOCCOCCOCCOCCOCCOCCOC)cc3)c2)c(-c2cc(C(=O)NCc3cccc(C(F)(F)F)c3)ccn2)c1 [Example 272, 2-(2-(3-(1-(4-(2,5,8,11,14,17,20-heptaoxadocosan-22-yl(2-methoxyethyl)carbamoyl)phenylsulfonamido)-3,6,9,12-tetraoxapentadecan-15-yl)benzamido)-5-(diethylamino)phenyl)-N-(3-(trifluoromethyl)benzyl)isonicotinamide]
< 1000 | >80% | >80% | CCN(CC)c1ccc(NC(=O)c2cccc(CCCOCCOCCOCCOCCC(=O)O)c2)c(-c2cc(C(=O)NCc3cccc(C(F)(F)F)c3)ccn2)c1 [Example 251, 16-(3-(4-(diethylamino)-2-(4-(3-(trifluoromethyl)benzylcarbamoyl)pyridin-2-yl)phenylcarbamoyl)phenyl)-4,7,10,13-tetraoxahexadecan-1-oic acid]
1000 to 7940 | >80% | >80% | CCN(CC)c1ccc(NC(=O)c2cccc(C(=O)N(C)CCN(CCOC)CCOCCOCCOCCOCCOCCOCCOC)c2)c(-c2cc(C(=O)NCc3cccc(C(F)(F)F)c3)ccn2)c1 [Example 335, N^1-(4-(Diethylamino)-2-(4-(3-(trifluoromethyl)benzylcarbamoyl)pyridin-2-yl)phenyl)-N^3-(23-(2-methoxyethyl)-2,5,8,11,14,17,20-heptaoxa-23-azapentacosan-25-yl)-N^3-methylisophthalamide, trifluoroacetate]
1000 to 7940 | >80% | >80% | CCN(CC)c1ccc(NC(=O)c2cccc(CSCCOCCOCCOCCOCCOCCOCCOCCOCCC(=O)O)c2)c(-c2cc(C(=O)N[C@H]3CCCc4ccccc43)ccn2)c1 [Example 161, (S)-1-(3-(4-(diethylamino)-2-(4-(1,2,3,4-tetrahydronaphthalen-1-ylcarbamoyl)pyridin-2-yl)phenylcarbamoyl)phenyl)-5,8,11,14,17,20,23,26-octaoxa-2-thianonacosan-29-oic acid]
1000 to 7940 | >80% | >80% | CCN(CC)c1ccc(NC(=O)c2cccc(CSCCOCCOCCOCCOCCOCCOCCOCCOCCC(=O)O)c2)c(-c2cc(C(=O)NCc3cccc(C(F)(F)F)c3)ccn2)c1 [Example 166, 1-(3-(4-(diethylamino)-2-(4-(3-(trifluoromethyl)benzylcarbamoyl)pyridin-2-yl)phenylcarbamoyl)phenyl)-5,8,11,14,17,20,23,26-octaoxa-2-thianonacosan-29-oic acid]
1000 to 7940 | >80% | – | CCN(CC)c1ccc(NC(=O)c2cccc(CCCOCCOCCOCCOCCOCCOCCOCCOCCOCCC(=O)O)c2)c(-c2cc(C(=O)NCc3cccc(C(F)(F)F)c3)ccn2)c1 [Example 298, 31-(3-(4-(diethylamino)-2-(4-(3-(trifluoromethyl)benzylcarbamoyl)pyridin-2-yl)phenylcarbamoyl)phenyl)-4,7,10,13,16,19,22,25,28-nonaoxahentriacontan-1-oic acid]
< 1000 | <20% | 60-80% | O=C(O)c1cccc(SCc2cccc(C(=O)Nc3ccc(N4CCCCC4)cc3-c3cc(C(=O)NCc4cccc(C(F)(F)F)c4)ccn3)c2)c1 [Example 8.1, 3-(3-(4-(piperidin-1-yl)-2-(4-(3-(trifluoromethyl)benzylcarbamoyl)pyridin-2-yl)phenylcarbamoyl)benzylthio)benzoic acid]
< 1000 | >80% | >80% | O=C(O)CCOCCOCCOCCNC(=O)c1cccc2c1ccn2Cc1cccc(C(=O)Nc2ccc(N3CCCCC3)cc2-c2cc(C(=O)N[C@H]3CCCc4ccccc43)ccn2)c1 [Example 181, (S)-1-oxo-1-(1-(3-(4-(piperidin-1-yl)-2-(4-(1,2,3,4-tetrahydronaphthalen-1-ylcarbamoyl)pyridin-2-yl)phenylcarbamoyl)benzyl)-1H-indol-4-yl)-5,8,11-trioxa-2-azatetradecan-14-oic acid]
< 1000 | 20-80% | – | CCN(CC)c1ccc(NC(=O)c2cccc(CCCOCCOCCOCCOCCOCCC(=O)O)c2)c(-c2cc(C(=O)NCc3cccc(C(F)(F)F)c3)ccn2)c1 [Example 300, 19-(3-(4-(diethylamino)-2-(4-(3-(trifluoromethyl)benzylcarbamoyl)pyridin-2-yl)phenylcarbamoyl)phenyl)-4,7,10,13,16-pentaoxanonadecan-1-oic acid]
< 1000 | <20% | >80% | CCN(CC)c1ccc(NC(=O)c2cccc(CCCOCCOCCOCCOCCOCCOCCOCCOCCOC)c2)c(-c2cc(C(=O)N[C@H]3CCCc4ccccc43)ccn2)c1 [Example 261, (S)-2-(2-(3-(2,5,8,11,14,17,20,23,26-nonaoxanonacosan-29-yl)benzamido)-5-(diethylamino)phenyl)-N-(1,2,3,4-tetrahydronaphthalen-1-yl)isonicotinamide]
< 1000 | 20-80% | >80% | CCCN(CCC)c1ccc(NC(=O)c2cccc(COCCOCCOCCOCCOCCOCCOCCOCCOC)c2)c(-c2cc(C(=O)NCc3cccc(C(F)(F)F)c3)ccn2)c1 [Example 200, 2-(2-(3-(2,5,8,11,14,17,20,23,26-nonaoxaheptacosyl)benzamido)-5-(dipropylamino)phenyl)-N-(3-(trifluoromethyl)benzyl)isonicotinamide]
< 1000 | 20-80% | – | CCN(CC)c1ccc(NC(=O)c2cccc(CCCOCCOCCOCCOCCOCCOCCC(=O)O)c2)c(-c2cc(C(=O)NCc3cccc(C(F)(F)F)c3)ccn2)c1 [Example 299, 22-(3-(4-(diethylamino)-2-(4-(3-(trifluoromethyl)benzylcarbamoyl)pyridin-2-yl)phenylcarbamoyl)phenyl)-4,7,10,13,16,19-hexaoxadocosan-1-oic acid]
1000 to 7940 | 20-80% | – | CN(CCN1CCOCC1)C(=O)c1cccc(C(=O)Nc2ccc(N3CCCCC3)cc2-c2cc(C(=O)NCc3cccc(C(F)(F)F)c3)ccn2)c1 [Example 80, N1-Methyl-N1-(2-morpholinoethyl)-N3-(4-(piperidin-1-yl)-2-(4-((3-(trifluoromethyl)benzyl)carbamoyl)pyridin-2-yl)phenyl)isophthalamide]
< 1000 | – | >80% | O=C(O)CCOCCOCCOCCOCCCc1cccc(C(=O)Nc2ccc(N3CCCCC3)cc2-c2cc(C(=O)N[C@H]3CCCc4ccccc43)ccn2)c1 [Example 252, 3-(2-(2-(2-(3-(3-((2-(4-(((S)-1,2,3,4-tetrahydronaphthalen-1-yl)carbamoyl)pyridin-2-yl)-4-(piperidin-1-yl)phenyl)carbamoyl)phenyl)propoxy)ethoxy)ethoxy)ethoxy)propanoic acid]
< 1000 | – | >80% | CCN(CC)c1ccc(NC(=O)c2cccc(CSc3cccc(CC(=O)N(C)CCOCCOCCOCCC(=O)O)c3)c2)c(-c2cc(C(=O)NCc3cccc(C(F)(F)F)c3)ccn2)c1 [Example 144, 3-(2-(2-(2-(2-(3-(3-(4-(diethylamino)-2-(4-(3-(trifluoromethyl)benzylcarbamoyl)pyridin-2-yl)phenylcarbamoyl)benzylthio)phenyl)-N-methylacetamido)ethoxy)ethoxy)ethoxy)propanoic acid]
1000 to 7940 | – | >80% | O=C(O)CCOCCOCCOCCOCCSCc1cccc(C(=O)Nc2ccc(N3CCCCC3)cc2-c2cc(C(=O)N[C@H]3CCCc4ccccc43)ccn2)c1 [Example 142, 1-(3-{[4-(piperidin-1-yl)-2-(4-{[(1S)-1,2,3,4-tetrahydronaphthalen-1-yl]carbamoyl}pyridin-2-yl)phenyl]carbamoyl}phenyl)-5,8,11,14-tetraoxa-2-thiaheptadecan-17-oic acid]
1000 to 7940 | – | – | CCN(CC)c1ccc(NC(=O)c2cccc(C(=O)N(C)CCOCCOCCOCCC(=O)O)c2)c(-c2cc(C(=O)NCc3cccc(C(F)(F)F)c3)ccn2)c1 [Example 188, 1-(3-((4-(diethylamino)-2-(4-((3-(trifluoromethyl)benzyl)carbamoyl)pyridin-2-yl)phenyl)carbamoyl)phenyl)-2-methyl-1-oxo-5,8,11-trioxa-2-azatetradecan-14-oic acid]
